Results taken from patent publication US8802866B2, “Pyridinylimidazolone derivatives for the inhibition of PI3 kinases” (Merck Patent GmbH, priority 2009, dated 2014).
Read-outs that look alike come from different tables or passages of the source.

Experiments:
[1] = molecular target: recombinant PI3Kalpha (shortened form of the catalytic subunit) (Homo sapiens, UniProt P42336); assay: BIACORE PI3K binding assay (SPR); conditions: 25° C.
Outline: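 Contact time was 180 s and dissociation 240 s, in HEPES pH 7.40 buffer with 2% DMSO. Solvent-corrected, double-referenced data were fitted to a 1:1 model with mass transport.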

[2] = molecular target: PI3Kalpha (Homo sapiens, UniProt P42336); assay: Biochemical PI3Kalpha assay (neomycin SPA, lipid phosphorylation); conditions: human recombinant GST-PI3K
Chain of PI3Kalpha (P42336 whole entry): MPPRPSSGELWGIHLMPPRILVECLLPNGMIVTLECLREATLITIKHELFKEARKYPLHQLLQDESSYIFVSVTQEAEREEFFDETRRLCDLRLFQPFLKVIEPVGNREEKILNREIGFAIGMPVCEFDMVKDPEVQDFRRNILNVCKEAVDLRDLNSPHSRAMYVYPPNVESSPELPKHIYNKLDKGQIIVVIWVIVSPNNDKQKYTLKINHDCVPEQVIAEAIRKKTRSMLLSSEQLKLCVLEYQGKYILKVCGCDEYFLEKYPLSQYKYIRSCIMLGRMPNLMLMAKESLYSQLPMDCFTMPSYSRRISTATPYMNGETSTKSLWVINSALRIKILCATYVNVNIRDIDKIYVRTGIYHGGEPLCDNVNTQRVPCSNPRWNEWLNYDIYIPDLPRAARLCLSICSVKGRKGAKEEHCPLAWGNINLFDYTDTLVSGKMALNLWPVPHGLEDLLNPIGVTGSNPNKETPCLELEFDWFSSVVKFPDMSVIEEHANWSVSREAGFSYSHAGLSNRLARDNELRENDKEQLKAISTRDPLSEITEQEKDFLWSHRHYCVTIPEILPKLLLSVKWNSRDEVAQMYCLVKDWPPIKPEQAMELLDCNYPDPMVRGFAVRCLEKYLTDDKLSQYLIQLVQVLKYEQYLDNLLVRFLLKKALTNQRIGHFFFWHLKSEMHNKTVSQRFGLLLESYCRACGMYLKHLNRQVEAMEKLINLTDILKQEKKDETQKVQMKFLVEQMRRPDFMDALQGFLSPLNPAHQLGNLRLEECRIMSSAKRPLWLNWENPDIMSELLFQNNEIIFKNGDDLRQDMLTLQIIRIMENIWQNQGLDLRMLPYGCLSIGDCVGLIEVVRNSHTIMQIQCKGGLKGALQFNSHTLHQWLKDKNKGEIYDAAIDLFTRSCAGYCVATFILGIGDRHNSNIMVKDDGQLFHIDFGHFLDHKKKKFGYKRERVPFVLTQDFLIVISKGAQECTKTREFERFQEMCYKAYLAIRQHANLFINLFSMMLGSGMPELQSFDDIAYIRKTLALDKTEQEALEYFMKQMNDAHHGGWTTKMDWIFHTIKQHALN
Chain of PI3Kalpha (P27986 whole entry partner): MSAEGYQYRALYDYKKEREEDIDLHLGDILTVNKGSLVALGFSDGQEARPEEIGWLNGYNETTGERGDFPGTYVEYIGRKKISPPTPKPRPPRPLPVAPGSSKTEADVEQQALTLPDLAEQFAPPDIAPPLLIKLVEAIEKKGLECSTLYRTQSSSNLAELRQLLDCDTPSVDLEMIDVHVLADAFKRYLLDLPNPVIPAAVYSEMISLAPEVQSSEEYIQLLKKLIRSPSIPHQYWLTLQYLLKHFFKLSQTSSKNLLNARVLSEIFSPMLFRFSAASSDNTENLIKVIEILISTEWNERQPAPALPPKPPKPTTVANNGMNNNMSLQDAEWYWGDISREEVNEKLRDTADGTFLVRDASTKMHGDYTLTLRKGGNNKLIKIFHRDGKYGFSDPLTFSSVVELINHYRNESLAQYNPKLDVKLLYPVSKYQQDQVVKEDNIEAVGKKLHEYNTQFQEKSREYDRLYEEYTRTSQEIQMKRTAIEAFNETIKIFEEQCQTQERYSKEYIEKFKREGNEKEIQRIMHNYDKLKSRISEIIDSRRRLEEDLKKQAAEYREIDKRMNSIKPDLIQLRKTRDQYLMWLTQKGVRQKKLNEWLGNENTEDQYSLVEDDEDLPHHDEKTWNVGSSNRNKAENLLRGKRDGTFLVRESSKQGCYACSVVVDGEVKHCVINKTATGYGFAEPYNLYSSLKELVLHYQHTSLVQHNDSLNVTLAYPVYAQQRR
Outline: (§1)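 Recombinant PI3K incubated with lipid substrate and radioactive ATP for 120 min at room temperature with gentle stirring, then stopped with neomycin-coated PVT-SPA beads, ATP 60 mM and EDTA 6.2 mM in PBS. After 60 min bead binding and centrifugation, radioactive Ptdlns(3)P counted by scintillation.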

[3] = molecular target: PI3Kbeta (Homo sapiens, UniProt P42338); assay: Biochemical PI3Kbeta assay (neomycin SPA, lipid phosphorylation); conditions: human recombinant GST-PI3K
Chain of PI3Kbeta (P42338 whole entry): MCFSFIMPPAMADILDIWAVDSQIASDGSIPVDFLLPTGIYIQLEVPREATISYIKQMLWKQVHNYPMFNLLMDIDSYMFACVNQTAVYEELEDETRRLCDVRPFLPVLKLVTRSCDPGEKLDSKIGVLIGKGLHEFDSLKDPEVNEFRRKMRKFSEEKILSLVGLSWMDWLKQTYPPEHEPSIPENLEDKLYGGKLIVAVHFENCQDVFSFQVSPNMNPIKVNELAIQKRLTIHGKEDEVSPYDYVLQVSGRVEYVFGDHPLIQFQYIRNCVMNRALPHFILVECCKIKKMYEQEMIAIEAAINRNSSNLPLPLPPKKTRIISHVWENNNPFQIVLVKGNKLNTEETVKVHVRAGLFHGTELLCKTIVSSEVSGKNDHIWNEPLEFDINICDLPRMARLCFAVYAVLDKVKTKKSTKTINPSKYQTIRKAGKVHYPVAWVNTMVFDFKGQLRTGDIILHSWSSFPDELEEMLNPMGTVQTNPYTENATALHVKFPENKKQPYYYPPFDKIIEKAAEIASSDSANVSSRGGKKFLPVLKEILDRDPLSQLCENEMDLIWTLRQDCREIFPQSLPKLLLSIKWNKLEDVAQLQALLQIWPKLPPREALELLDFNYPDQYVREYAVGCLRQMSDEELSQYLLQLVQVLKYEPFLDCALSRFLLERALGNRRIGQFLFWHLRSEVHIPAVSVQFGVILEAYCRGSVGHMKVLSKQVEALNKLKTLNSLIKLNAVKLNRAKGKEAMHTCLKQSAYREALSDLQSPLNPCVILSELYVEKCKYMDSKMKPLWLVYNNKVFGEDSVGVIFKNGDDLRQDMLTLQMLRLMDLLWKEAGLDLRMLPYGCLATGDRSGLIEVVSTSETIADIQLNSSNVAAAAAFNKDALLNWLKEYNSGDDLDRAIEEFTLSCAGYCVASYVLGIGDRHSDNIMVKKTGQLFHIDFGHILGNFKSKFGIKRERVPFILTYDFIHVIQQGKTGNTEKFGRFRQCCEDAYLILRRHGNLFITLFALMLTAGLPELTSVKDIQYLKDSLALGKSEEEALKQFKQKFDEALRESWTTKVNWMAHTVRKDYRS
Chain of PI3Kbeta (P27986 whole entry partner): as the sequence (P27986 whole entry partner) above
Outline: as §1

[4] = test system: PI3K-dependent phosphorylation of PKB at Serin 473 in PC3 cells; assay: Cellular PI3K assay (P-S473-PKB Luminex assay in PC3 cells); format: cell-based; conditions: Homo sapiens, PC-3, 0.5 h, read-out: IC50 (cell)
Outline: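 PC3 cells were exposed for 30 min under serum-free conditions to 7 concentrations of compound, then lysed. Lysates were captured overnight at 4°C on anti-total-PKB Luminex beads and detected with P-S473-PKB antibody plus PE-labelled secondary.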

[5] = molecular target: DNA-PK protein complex (Homo sapiens, UniProt P78527); assay: Biochemical DNA-PK assay (FlashPlate)
Outline: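 Streptavidin-coated FlashPlate radiometric kinase assay, stopped with 200 mM EDTA, then wells washed with 0.9% NaCl and bound radioactivity counted. Blank (non-specific reaction) defined with a proprietary kinase inhibitor at 10 μM.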

[6] = molecular target: T1, mTOR (Homo sapiens, UniProt P42345); assay: Biochemical mTOR assay (Millipore mTOR assay kit)
T1 construct: purchased Millipore 14-770
T1 sequence (P42345 1362-2549 limits assumed): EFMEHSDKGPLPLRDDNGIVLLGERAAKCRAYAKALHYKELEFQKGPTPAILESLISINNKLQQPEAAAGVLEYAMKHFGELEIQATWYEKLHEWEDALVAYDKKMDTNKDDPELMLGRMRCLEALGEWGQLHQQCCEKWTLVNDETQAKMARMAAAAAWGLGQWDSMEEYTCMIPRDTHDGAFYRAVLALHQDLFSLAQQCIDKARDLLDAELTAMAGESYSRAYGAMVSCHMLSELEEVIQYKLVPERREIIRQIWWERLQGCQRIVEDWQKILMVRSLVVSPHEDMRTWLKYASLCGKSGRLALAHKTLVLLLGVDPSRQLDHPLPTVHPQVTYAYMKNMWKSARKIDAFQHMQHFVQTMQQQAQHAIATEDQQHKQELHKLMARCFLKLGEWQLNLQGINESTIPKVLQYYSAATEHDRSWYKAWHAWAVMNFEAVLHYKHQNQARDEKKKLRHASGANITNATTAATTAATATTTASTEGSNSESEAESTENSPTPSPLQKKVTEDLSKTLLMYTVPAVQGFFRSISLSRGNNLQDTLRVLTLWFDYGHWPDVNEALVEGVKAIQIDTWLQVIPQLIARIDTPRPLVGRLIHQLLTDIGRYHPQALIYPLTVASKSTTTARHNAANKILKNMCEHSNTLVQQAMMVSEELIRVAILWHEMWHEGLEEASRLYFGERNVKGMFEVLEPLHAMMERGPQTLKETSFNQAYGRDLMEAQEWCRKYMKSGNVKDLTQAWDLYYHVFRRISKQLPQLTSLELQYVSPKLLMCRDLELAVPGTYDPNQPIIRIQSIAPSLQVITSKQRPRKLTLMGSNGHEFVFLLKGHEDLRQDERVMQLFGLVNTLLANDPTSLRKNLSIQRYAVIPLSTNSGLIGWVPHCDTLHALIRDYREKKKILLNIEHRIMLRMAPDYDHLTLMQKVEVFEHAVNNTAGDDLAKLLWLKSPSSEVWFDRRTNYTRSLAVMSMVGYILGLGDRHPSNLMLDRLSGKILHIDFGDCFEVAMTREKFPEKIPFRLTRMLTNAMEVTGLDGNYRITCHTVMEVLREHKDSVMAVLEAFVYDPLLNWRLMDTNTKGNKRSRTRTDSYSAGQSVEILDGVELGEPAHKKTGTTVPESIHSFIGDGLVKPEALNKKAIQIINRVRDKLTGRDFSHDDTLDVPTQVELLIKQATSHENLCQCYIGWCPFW
Experimental: The biochemical mTOR assay was carried out by the method described in the Millipore mTOR assay kit (catalogue number 14-770).

[7] = PC3 cells, 30 min, serum-free, P-S473-PKB

Chain of recombinant PI3Kalpha (shortened form of the catalytic subunit) (P42336 151-1068 limits assumed): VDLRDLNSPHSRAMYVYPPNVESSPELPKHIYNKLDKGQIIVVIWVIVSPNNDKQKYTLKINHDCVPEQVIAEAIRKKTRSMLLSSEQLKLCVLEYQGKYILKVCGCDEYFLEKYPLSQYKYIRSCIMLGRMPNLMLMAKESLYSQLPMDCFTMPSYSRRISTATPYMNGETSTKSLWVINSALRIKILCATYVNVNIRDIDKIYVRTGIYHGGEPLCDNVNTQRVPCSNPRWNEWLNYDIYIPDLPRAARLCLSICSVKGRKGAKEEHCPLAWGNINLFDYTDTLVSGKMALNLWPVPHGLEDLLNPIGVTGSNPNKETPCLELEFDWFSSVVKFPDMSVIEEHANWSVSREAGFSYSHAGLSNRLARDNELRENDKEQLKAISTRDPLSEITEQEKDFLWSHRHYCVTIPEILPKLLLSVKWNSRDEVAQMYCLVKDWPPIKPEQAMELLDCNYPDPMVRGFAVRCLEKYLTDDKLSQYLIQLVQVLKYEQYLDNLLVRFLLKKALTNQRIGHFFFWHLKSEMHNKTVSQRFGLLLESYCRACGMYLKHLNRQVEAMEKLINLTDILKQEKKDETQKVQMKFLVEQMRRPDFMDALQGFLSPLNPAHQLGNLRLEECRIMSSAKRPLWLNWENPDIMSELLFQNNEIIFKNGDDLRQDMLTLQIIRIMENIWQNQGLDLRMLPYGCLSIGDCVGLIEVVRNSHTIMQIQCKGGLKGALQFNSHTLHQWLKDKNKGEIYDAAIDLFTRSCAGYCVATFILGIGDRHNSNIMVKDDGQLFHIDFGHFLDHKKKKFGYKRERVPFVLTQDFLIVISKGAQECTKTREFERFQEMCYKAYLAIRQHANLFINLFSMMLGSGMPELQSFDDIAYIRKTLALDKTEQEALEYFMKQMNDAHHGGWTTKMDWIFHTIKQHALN

| Kd [1] [nM] | IC50 [2] [nM] | IC50 [3] [nM] | IC50 [4, 7] [nM] | IC50 [5] [nM] | melting point [°C] | IC50 [6] [nM] | SMILES | IC50 [4] [nM] |
| --- | --- | --- | --- | --- | --- | --- | --- | --- |
| 100 to 10000 | 100 to 10000 | 100 to 10000 | 100 to 10000 | 100 to 10000 | 155 | – | O=c1[nH]cc(-c2cc(-c3cnc4ccccc4c3)ccn2)n1-c1ccc(N2CCNCC2)c(C(F)(F)F)c1 [Example A5, 1-(4-piperazin-1-yl-3-trifluoromethylphenyl)-5-(4-quinolin-3-ylpyridin-2-yl)-1,3-dihydroimidazol-2-one] | – |
| 100 to 10000 | 100 to 10000 | 100 to 10000 | > 10000 | 100 to 10000 | 138 | – | COc1cc(-c2ccnc(-c3cn(C)c(=O)n3-c3ccc(C(C)(C)C#N)cc3)c2)ccn1 [Example A6, 2-{4-[5-(2′-Methoxy-[4,4′]bipyridinyl-2-yl)-3-methyl-2-oxo-2,3-dihydroimidazol-1-yl]phenyl}-2-methylpropionitrile] | – |
| 0.1 to 100 | 0.1 to 100 | 100 to 10000 | 100 to 10000 | 100 to 10000 | 288 | – | Cc1nc2cc(-c3ccnc(-c4cn(C)c(=O)n4-c4ccc(C(C)(C)C#N)cc4)c3)cnc2[nH]1 [Example A7, 2-Methyl-2-(4-{3-methyl-5-[4-(2-methyl-3H-imidazo[4,5-b]pyridin-6-yl)pyridin-2-yl]-2-oxo-2,3-dihydroimidazol-1-yl}phenyl)propionitrile] | – |
| 0.1 to 100 | 0.1 to 100 | 100 to 10000 | 100 to 10000 | 100 to 10000 | 252 | – | Cn1cc(-c2cc(-c3ccc(N)nc3)ccn2)n(-c2ccc(C(C)(C)C#N)cc2)c1=O [Example A8, 2-{4-[5-(6-Amino-[3,4′]bipyridinyl-2′-yl)-3-methyl-2-oxo-2,3-dihydroimidazol-1-yl]phenyl}-2-methylpropionitrile] | – |
| 100 to 10000 | 100 to 10000 | 100 to 10000 | > 10000 | 0.1 to 100 | 180 | – | Cn1cc(-c2cc(-c3cccnc3)ccn2)n(-c2ccc(C(C)(C)C#N)cc2)c1=O [Example A10, 2-[4-(5-[3,4′]Bipyridinyl-2′-yl-3-methyl-2-oxo-2,3-dihydroimidazol-1-yl)phenyl]-2-methylpropionitrile] | – |
| – | 100 to 10000 | > 10000 | > 10000 | 0.1 to 100 | 226 | – | Cn1cc(-c2cc(-c3ccncc3)ccn2)n(-c2ccc(C(C)(C)C#N)cc2)c1=O [Example A11, 2-[4-(5-[4,4′]Bipyridinyl-2-yl-3-methyl-2-oxo-2,3-dihydroimidazol-1-yl)phenyl]-2-methylpropionitrile] | – |
| – | 100 to 10000 | > 10000 | > 10000 | 100 to 10000 | 132 | – | Cn1cc(-c2cc(-c3cnc4ccccc4c3)ccn2)n(-c2ccc(C(C)(C)CN)cc2)c1=O [Example A30, 3-[4-(2-Amino-1,1-dimethylethyl)phenyl]-1-methyl-4-(4-quinolin-3-ylpyridin-2-yl)-1,3-dihydroimidazol-2-one] | – |
| – | 0.1 to 100 | 100 to 10000 | 100 to 10000 | 0.1 to 100 | 284 | – | Cn1cc(-c2cc(-c3cnc4c(c3)CCC(=O)N4)ccn2)n(-c2ccc(C(C)(C)C#N)cc2)c1=O [Example A45, 2-Methyl-2-(4-{3-methyl-2-oxo-5-[4-(7-oxo-5,6,7,8-tetrahydro-[1,8]naphthyridin-3-yl)pyridin-2-yl]-2,3-dihydroimidazol-1-yl}phenyl)propionitrile] | – |
| 100 to 10000 | 100 to 10000 | 100 to 10000 | 100 to 10000 | 0.1 to 100 | – | 100 to 10000 | CN1CCN(c2ccc(-n3c(-c4cc(-c5cnc6[nH]c(C(C)(C)C)cc6c5)ccn4)cn(C)c3=O)cc2C(F)(F)F)CC1 [Example A86, 4-[4-(2-tert-Butyl-1H-pyrrolo[2,3-b]pyridin-5-yl)pyridin-2-yl]-1-methyl-3-[4-(4-methylpiperazin-1-yl)-3-trifluoromethylphenyl]-1,3-dihydroimidazol-2-one] | – |
| 100 to 10000 | 100 to 10000 | 100 to 10000 | 100 to 10000 | 0.1 to 100 | – | 100 to 10000 | CN1CCN(c2ccc(-n3c(-c4cc(-c5cnc6[nH]c(C(F)(F)F)cc6c5)ccn4)cn(C)c3=O)cc2C(F)(F)F)CC1 [Example A87, 1-Methyl-3-[4-(4-methylpiperazin-1-yl)-3-trifluoromethylphenyl]-4-[4-(2-trifluoro-methyl-1H-pyrrolo[2,3-b]pyridin-5-yl)pyridin-2-yl]-1,3-dihydroimidazol-2-one] | – |
| 100 to 10000 | 100 to 10000 | > 10000 | > 10000 | 0.1 to 100 | – | 100 to 10000 | Cn1cc(-c2cc(-c3ccc4ncncc4c3)ccn2)n(-c2ccc(C(C)(C)C#N)cc2)c1=O [Example A91, 2-Methyl-2-{4-[3-methyl-2-oxo-5-(4-quinazolin-6-ylpyridin-2-yl)-2,3-dihydro-imidazol-1-yl]phenyl}propionitrile] | – |
| 100 to 10000 | 100 to 10000 | 100 to 10000 | > 10000 | 0.1 to 100 | – | 100 to 10000 | Cn1cc(-c2cc(-c3cnc4[nH]c(C(C)(C)C)cc4c3)ccn2)n(-c2ccc(C(C)(C)C#N)cc2)c1=O [Example A92, 2-(4-{5-[4-(2-tert-Butyl-1H-pyrrolo[2,3-b]pyridin-5-yl)pyridin-2-yl]-3-methyl-2-oxo-2,3-dihydroimidazol-1-yl}phenyl)-2-methylpropionitrile] | – |
| 0.1 to 100 | 100 to 10000 | 100 to 10000 | 100 to 10000 | 0.1 to 100 | – | 100 to 10000 | Cn1cc(-c2cc(-c3ccc(N)c(C(F)(F)F)c3)ccn2)n(-c2ccc(C(C)(C)C#N)cc2)c1=O [Example A93, 2-(4-{5-[4-(4-Amino-3-trifluoromethylphenyl)pyridin-2-yl]-3-methyl-2-oxo-2,3-dihydroimidazol-1-yl}phenyl)-2-methylpropionitrile] | – |
| 100 to 10000 | 100 to 10000 | 100 to 10000 | 100 to 10000 | 0.1 to 100 | – | 100 to 10000 | Cn1cc(-c2cc(-c3cnc4[nH]ccc4c3)ccn2)n(-c2cc(F)cc(C#N)c2)c1=O [Example A96, 3-Fluoro-5-{3-methyl-2-oxo-5-[4-(1H-pyrrolo[2,3-b]pyridin-5-yl)pyridin-2-yl]-2,3-dihydroimidazol-1-yl}benzonitrile] | – |
| – | – | – | 100 to 10000 | 100 to 10000 | 268 | – | Cn1cc(-c2cc(-c3cnc4[nH]cc(F)c4c3)ccn2)n(-c2ccc(F)c(C(F)(F)F)c2)c1=O [Example A105, 4-[4-(3-Fluoro-1H-pyrrolo[2,3-b]pyridin-5-yl)pyridin-2-yl]-3-(4-fluoro-3-trifluoro-methylphenyl)-1-methyl-1,3-dihydroimidazol-2-one] | – |

| SMILES | Kd [1] [nM] | IC50 [2] [nM] | IC50 [3] [nM] | IC50 [4, 7] [nM] | IC50 [5] [nM] | melting point [°C] | IC50 [6] [nM] | IC50 [4] [nM] |
| --- | --- | --- | --- | --- | --- | --- | --- | --- |
| Cc1cc2cc(-c3ccnc(-c4cn(C)c(=O)n4-c4ccc(C(C)(C)C#N)cc4)c3)cnc2[nH]1 [Example A85, 2-Methyl-2-(4-{3-methyl-5-[4-(2-methyl-1H-pyrrolo[2,3-b]pyridin-5-yl)pyridin-2-yl]-2-oxo-2,3-dihydroimidazol-1-yl}phenyl)propionitrile] | 0.1 to 100 | 100 to 10000 | 100 to 10000 | – | 0.1 to 100 | – | 100 to 10000 | 100 to 10000 |
